From patent US12527776B2, “Treatment of ciliopathies using inhibitors of glucosylceramide synthase (GCS)” (GENZYME CORPORATION, priority 2019, dated 2026)

What was measured:
Bbs2−/− mice [1] = experiment: Liver abnormalities in Bbs2−/− mice (liver weight, ALT, triglycerides); assay type: in vivo, mouse; details: feed from 1 to 6 months of age
Source text: (§1) A Bbs2^−/− mouse model has been described by Nishimura D Y et al. (Proc Natl Acad Sci, 101:16588-16593 (2004)) with exons 5-14 of Bbs2 replaced with a neomycin cassette. Mice were backcrossed into 129/SvJ background. Treated Bbs2^−/− mice were fed ad libitum with 0.033% w/w of Compound 1 incorporated in feed from the age of 1 month to 6 months. Bbs2^−/− and Wt control animals were fed regular 5053 chow (LabDiet). To establish metabolic disease, Bbs2^−/− mice were left untreated until four-months of age, and then treated with Compound 1 incorporated into feed for the fifth and sixth months.
Triglyceride and ALT levels were measured using a VetACE™ analyzer (Alfa Wasserman, West Coldwell, NJ).

[2] = tested on: human preadipocytes SQ cells with BBS1, BBS2 or BBS10 knocked-down; experiment: In vitro adipocyte differentiation assay; assay type: cell-based; details: 1.25-10 μM, 10 days differentiation
Procedure: In Vitro Adipocyte Differentiation Assay
In order to examine the effect of Compound 1 on other mutations, we developed an in vitro differentiation assay in human preadipocyte cells. The BBS genes BBS1, BBS2, or BBS10 were knocked-down in cells using siRNA. For this, human preadipocytes SQ cells (Lonza) were plated in PGM-2 Preadipocyte Growth Medium-2 BulletKit, (Lonza) at 30,000 cells/cm^2 density and grown at 37° C. overnight. On the next day, cells were transfected with BBS1, BBS2 or BBS10 specific siRNA in OptiMem (Invitrogen) in the presence of Lipofectamine 2000 (Invitrogen) and differentiated in RDM-2 medium (Lonza) for 10 days with or without Compound 1 at concentrations of […], 5.0 and 10 μM (stock of Compound 1 was prepared in 100% ethanol and diluted with RDM-2 medium to final concentrations before adding to cells). A mixture of nonspecific siRNA (scrambled) was used as a negative control. Media was harvested for leptin analysis with Quantikine ELISA kit (RnD Systems, Inc.) at days 0, 5, 7 and 10 of adipocytes differentiation. Photomicroscopy (Axiovert 25, Zeiss with LASv4.2, Leica) was used to quantify lipid accumulation, which is evident by the size and quantity of lipid vacuoles in the cells.

Bbs2−/− mice [3] = experiment: Retinal degeneration in Bbs2−/− mice (OCT, immunofluorescence); assay type: in vivo, mouse; details: treatment for 5 months from one month of age
Source text: as §1
A non-invasive imaging technique, optical coherence tomography (OCT) using the Bioptigen Envisu R2200 instrument, was used to generate a cross-sectional image of the retina with 2 micron resolution to measure the thickness of the retinal cell layers in vivo.
Paraffin-embedded samples of eyes from Wt and Bbs2^−/− mice were prepared and analysed as described supra. The primary antibodies used were rhodopsin (Thermo Scientific) and cone arrestin (EMD Millipore).

[4] = tested on: Bbs2−/− immortalized kidney epithelial cells; experiment: Cell culture and primary cilium staining (cilia length, GSL localization); assay type: cell-based, mouse; details: serum free, compound for 6-24 hours
Procedure: Cell Culture and Primary Cilium Staining
Wild type and Bbs2^−/− kidney epithelium cell lines were established and maintained as described previously (See Natoli T et al., Nat Med, 16:788-792 (2010); and Humes H D. et al., Am J Kidney Dis, 39:1078-1087(2002)). Cells were cultured on collagen I coated glass slides in DMEM containing 1% penicillin/streptomycin, 10% FBS. To determine the effect of compounds on cilia and lipid localization, cells were cultured in serum free media for 24 hours followed by the addition of Compound 1 for 6-24 hours. Cells were then fixed with 4% paraformaldehyde followed by immunofluorescence with anti-GM3 (Creative Biolabs), anti-ceramide (Sigma Aldrich), anti-GM1 (Invitrogen), and anti-acetylated tubulin (Cell Signaling) antibodies. Cilia length was quantified using Metamorph software.

For `CC(C)(NC(=O)OC1CN2CCC1CC2)c1cccc(-c2ccc(F)cc2)c1` (stereo not drawn) [Compound 1, 1-azabicyclo[2.2.2]oct-3-yl [2-(4′-fluorobiphenyl-3-yl)propan-2-yl]carbamate], the liver weight (Bbs2−/− mice [1]) was “normalized”, the “serum ALT” value (Bbs2−/− mice [1]) was “normalized” and the serum triglycerides (Bbs2−/− mice [1]) was “normalized”. For the same compound, the leptin secretion [2] was “reduction”, the lipid accumulation [2] was “reduction of lipid accumulation” and the “increase in the thickness of the ONL” value (Bbs2−/− mice [3]) was ~2 fold. The “rod-cone specific staining (rhodopsin, cone arrestin)” value (Bbs2−/− mice [3]) was “partial restoration/preservation of rod-cone specific staining”, the GM3 localization [4] was “restores GM3 localization similar to what is observed in Wt cells” and the cilia length [4] was “elongates cilia”.
